Converted amounts (≈) assume the structure as drawn. Where two headings read alike, the source gives them in different places.
Legend:
M. haemolytica = assay: In-vitro MIC model (CLSI broth micro-dilution)
P. multocida [1] = assay: In-vitro MIC model (CLSI broth micro-dilution)
H. somni = assay: In-vitro MIC model (CLSI broth micro-dilution)
P. multocida [2] = assay: Murine P. multocida intranasal challenge study with lung tissue RNA sequence analysis; format: in vivo, mice; settings: subcutaneous 18 hours after challenge (5×10^3 CFU/mouse): tulathromycin 16 mg/kg, M9 32 mg/kg, ceftiofur 9 mg/kg; placebo 0%
Experimental: In one murine P. multocida intranasal challenge study, mice were administered tulathromycin (16 mg/kg; T02), M9 (32 mg/kg; T03), or ceftiofur (9 mg/kg; T04) by subcutaneous injection 18 hours after bacterial challenge (5×10^3 CFU/mouse) for lung tissue RNA sequence analysis. Survival at Day 7 was about 80%, 50%, and 90% for T02, T03, and T04, respectively, compared to placebo at 0%. Differential gene expression from total lung tissue RNA sequence analysis indicated at least 226 unique genes were up or down regulated (with significance) for T03. Output from ingenuity pathway analysis of these unique genes predicted major upstream regulators of the involved pathways. Data was analyzed based on the number of genes being modulated in the same direction that were associated with a given upstream regulator. An activation z-score of 2 or greater is considered significant and the direction change is indicated by +(activated) or − (inhibited). The top 5 pathways included: IL-9 signaling, glucocorticoid receptor signaling, prolactin signaling, JAK STAT signaling, and IL-17 signaling. The top 6 upstream regulators (activation z-score) included: lipopolysaccharide (−6.725), TNF (−4.669), IFNG (−5.759), IL-1β (−5.947), STAT1 (−2.787), and poly rl:rC-RNA (−5.289). Even though this study was run in the murine model, the top upstream regulators identified as being modulated by M9 include an almost ubiquitous overlap with the pathways identified in the natural disease study as being key mediators in BRD, and therefore is modulating highly relevant pathways in BRD pathobiology.

E. coli = assay: In-vitro MIC model (CLSI broth micro-dilution); settings: Escherichia coli, ATCC25922, read-out: Comparative MIC's, E. coli ATCC 25922
IL-6 = assay: Plasma IL-6 biomarker in bovine M. haemolytica challenge; settings: bovine, in vivo
[3] = M. haemolytica (116) lung isolates at necropsy, natural BRD study
[4] = P. multocida (33) lung isolates at necropsy, natural BRD study
[5] = H. somni (25) lung isolates at necropsy, natural BRD study

CCCN1C[C@H](C)[C@@H](O)[C@](C)(O)[C@@H](CC)OC(=O)[C@H](C)[C@@H](O[C@H]2C[C@@](C)(OC)[C@@H](O)[C@H](C)O2)[C@H](C)[C@@H](O[C@@H]2O[C@H](C)C[C@H](N(C)C)[C@H]2O)[C@](C)(O)C[C@H]1C [gamithromycin (Zactran)]
MIC50 (M. haemolytica; [3]): 1 µg/mL (≈ 1.29 µM)
MIC90 (M. haemolytica; [3]): >64 µg/mL
MIC50 (P. multocida [1]; [4]): 1 µg/mL (≈ 1.29 µM)
MIC90 (P. multocida [1]; [4]): >64 µg/mL
MIC50 (H. somni; [5]): 0.25 µg/mL (≈ 0.322 µM)
MIC90 (H. somni; [5]): 2 µg/mL (≈ 2.57 µM)
MIC Range (H. somni; [5]): 0.12 to 2 µg/mL

CCCN1C[C@H](C)[C@@H](O)[C@](C)(O)[C@@H](CC)OC(=O)[C@H](C)[C@@H](O[C@H]2C[C@@](C)(OC)[C@@H](O)[C@H](C)O2)[C@H](C)[C@@H](O[C@@H]2O[C@H](C)C[C@H](N(C)C)[C@H]2O)[C@](C)(O)C[C@H]1C [gamithromycin]
MIC (M. haemolytica; 25 different strains of M. haemolytica): 0.5 to 1 µg/mL
MIC (P. multocida [1]; 25 different strains of P. multocida): 1 to 2 µg/mL
MIC (H. somni; H. somni (31 strains)): 0.25 to 8 µg/mL

CCCNC[C@]1(O)[C@H](C)O[C@@H](O[C@H]2[C@H](C)[C@@H](O[C@@H]3O[C@H](C)C[C@H](N(C)C)[C@H]3O)[C@](C)(O)C[C@@H](C)CN[C@H](C)[C@@H](O)[C@](C)(O)[C@@H](CC)OC(=O)[C@@H]2C)C[C@@]1(C)OC [Tulathromycin, (2R,3S,4R,5R,8R,10R,11R,12S,13S,14R)-11-(((2S,3R,4S,6R)-4-(dimethylamino)-3-hydroxy-6-methyltetrahydro-2H-pyran-2-yl)oxy)-2-ethyl-3,4,10-trihydroxy-13-(((2R,4R,5S,6S)-5-hydroxy-4-methoxy-4,6-dimethyl-5-((propylamino)methyl)tetrahydro-2H-pyran-2-yl)oxy)-3,5,8,10,12,14-hexamethyl-1-oxa-6-azacyclopentadecan-15-one]
Survival at Day 7 (P. multocida [2]): about 80%
MIC (M. haemolytica; Mannheimia haemolytica, ATCC33396, read-out: Comparative MIC's, M. haemolytica ATCC 33396): 1 µg/mL (≈ 1.24 µM)
MIC (M. haemolytica; Mannheimia haemolytica, read-out: Comparative MIC's, M. haemolytica 12726): 2 µg/mL (≈ 2.48 µM)
MIC (M. haemolytica; Mannheimia haemolytica, read-out: Comparative MIC's, M. haemolytica 46571*): 1 µg/mL (≈ 1.24 µM)
MIC (P. multocida [1]; Pasteurella multocida, ATCC43137, read-out: Comparative MIC's, P. multocida ATCC 43137): 1 µg/mL (≈ 1.24 µM)
MIC (E. coli): 2 µg/mL (≈ 2.48 µM)
IL-6 levels (plasma) in bovine M. haemolytica challenge (IL-6): significantly reduced

From US12295936B2, “Immunomodulating urea azalides” (Zoetis Services LLC, priority 2020, dated 2025)
